Results published in US5010107A, “Method and composition for achieving anticarcinogenic activity” (priority 1989, dated 1991).
Read-outs that look alike come from different tables or passages of the source.

Columns and labels:
[1] = tested on: β-glucuronidase; settings: cells, blood, cited from earlier work
[2] = tested on: 7,12-dimethylbenz(a)anthracene-induced mammary tumors; assay: DMBA-induced mammary tumor formation in rats fed CGT, HPR or both; assay type: in vivo, female Sprague Dawley rats; settings: for Rats with tumors / Total No. tumors: 20 rats
Procedure: They were maintained on the diets for approximately 4 mos., and were examined (palpated) for mammary tumors weekly. […] The retinoid (HPR) was first dissolved in 25 ml of a vehicle consisting of ethanol-tricaprylin-6% α-tocopherol, then thoroughly mixed with powdered rat chow.

[3] = tested on: carcinogenesis; settings: higher doses of CGT; cited from earlier work
[4] = tested on: 7,12-dimethylbenz(a)anthracene-induced mammary tumorigenesis; settings: cited from earlier work
[5] = cited from earlier work
[6] = tested on: established DMBA-induced mammary tumors; assay: Growth of established DMBA-induced mammary tumors; assay type: in vivo, female Sprague Dawley rats; settings: 2 mmol/kg diet; within 5 to 10 days
Procedure: (§1) When higher doses (2 mmol/kg diet) of HPR were used, growth arrest was followed within 5 to 10 days by 30% regression of the DMBA-induced mammary tumors. Also, HPR (0.1 uM) inhibited the […] growth of the human breast cancer cell line (MCF-7) to 50% of the control within 7 days.

[7] = tested on: established mammary tumors; assay: Growth of established mammary tumors in CD8 F1 mice; assay type: in vivo
Procedure: as §1

[8] = tested on: cellular cAMP (cyclic AMP) and histone kinases; settings: cited from earlier work

## O=C(O)[C@@H](O)[C@H]1OC(=O)[C@H](O)[C@H]1O [GL, D-glucaro-1,4-lactone]
[1]; urine and intestine
  inhibition of β-glucuronidase: potent inhibitor of β-glucuronidase

## O=C([O-])[C@@H](O)[C@@H](O)[C@H](O)[C@@H](O)C(=O)[O-].[Ca+2] [CGT, calcium glucarate]
[2]; 1.0% CGT alone
  inhibition of tumor incidence: 20%
  inhibition of tumors/rat: 9%
[2]; 1% CGT in chow diet
  Tumor Incidence: 55
  Tumors per rat: 1.0
  Rats with tumors: 11
  Total No. tumors: 20
[2]; 2% CGT in chow diet
  Tumor Incidence: 55
  Tumors per rat: 1.0
  Rats with tumors: 11
  Total No. tumors: 20
[2]; 4% CGT in chow diet
  Tumor Incidence: 35
  Tumors per rat: 0.5
  Rats with tumors: 7
  Total No. tumors: 10
[1]; urine, intestine and liver
  inhibition of β-glucuronidase: effective as inhibitors of β-glucuronidase
[3]
  effectiveness against lung, colon and mammary carcinogenesis: effective against lung, colon and mammary carcinogenesis
[4]; 4% CGT diet, started two weeks after carcinogen, by 28 weeks
  tumor induction relative to controls: 30%
[4]; CGT-supplemented diet vs normal chow diet
  food consumption and weight gain: ate quantities of food and had weight gain identical to those on the normal chow diet
[4]; anti-promotional effect of CGT, probable cause
  steady-state level of sex hormones: reduction in the steady-state level of sex hormones
[5]; fed
  release of D-glucaro-1,4-lactone (GL) when fed: slowly release D-glucaro-1,4-lactone (GL)

## 2,4-di-O-acetyl-D-glucaro-1,4-lactone
[1]; urine, intestine and liver
  inhibition of β-glucuronidase: effective as inhibitors of β-glucuronidase
[5]; in vivo
  release of D-glucaro-1,4-lactone (GL) when fed: slowly release D-glucaro-1,4-lactone (GL)

## CC1=C(/C=C/C(C)=C/C=C/C(C)=C/C(=O)Nc2ccc(O)cc2)C(C)(C)CCC1 [HPR, N-(4-hydroxyphenyl)retinamide]
[2]; 0.75 mmol/kg HPR alone
  inhibition of tumor incidence: 15%
  inhibition of tumors/rat: 9%
[2]; 0.75 mmol/kg diet HPR
  Rats with tumors: 12
[6]
  regression of the DMBA-induced mammary tumors, following growth arrest: 30%
[7]
  inhibition of tumor growth: 50%
[8]
  level of cellular cAMP and of histone kinases: elevate the level of cellular cAMP (cyclic AMP) and of histone kinases

## O=C(O)[C@@H](O)[C@@H](O)[C@H](O)[C@@H](O)C(=O)[O-].[K+] [potassium hydrogen glucarate]
[1]; urine, intestine and liver
  inhibition of β-glucuronidase: effective as inhibitors of β-glucuronidase
[5]; fed
  release of D-glucaro-1,4-lactone (GL) when fed: slowly release D-glucaro-1,4-lactone (GL)
